Converted amounts (≈) assume the structure as drawn. Values belong to the molecule of their own block, whether it stands above or below them.
Tests used:
[1] = Metabolic stability in human hepatic microsomes assessed as parent compound remaining at 1 uM after 30 mins in presence of NADPH by LC-MS/MS analysis relative to control; type: ADME, Microsome; conditions: liver microsomes, read-out: Stability
[2] = molecular target: Metabotropic glutamate receptor 5 (Homo sapiens, UniProt P41594); assay: Negative allosteric modulation of human recombinant mGluR5 expressed in HEK293 cells assessed as inhibition of glutamate-induced calcium mobilization preincubated for 2 mins followed glutamate addition measured by fluorescence assay; type: functional, cell-based
Sequence of Metabotropic glutamate receptor 5 (P41594 whole entry): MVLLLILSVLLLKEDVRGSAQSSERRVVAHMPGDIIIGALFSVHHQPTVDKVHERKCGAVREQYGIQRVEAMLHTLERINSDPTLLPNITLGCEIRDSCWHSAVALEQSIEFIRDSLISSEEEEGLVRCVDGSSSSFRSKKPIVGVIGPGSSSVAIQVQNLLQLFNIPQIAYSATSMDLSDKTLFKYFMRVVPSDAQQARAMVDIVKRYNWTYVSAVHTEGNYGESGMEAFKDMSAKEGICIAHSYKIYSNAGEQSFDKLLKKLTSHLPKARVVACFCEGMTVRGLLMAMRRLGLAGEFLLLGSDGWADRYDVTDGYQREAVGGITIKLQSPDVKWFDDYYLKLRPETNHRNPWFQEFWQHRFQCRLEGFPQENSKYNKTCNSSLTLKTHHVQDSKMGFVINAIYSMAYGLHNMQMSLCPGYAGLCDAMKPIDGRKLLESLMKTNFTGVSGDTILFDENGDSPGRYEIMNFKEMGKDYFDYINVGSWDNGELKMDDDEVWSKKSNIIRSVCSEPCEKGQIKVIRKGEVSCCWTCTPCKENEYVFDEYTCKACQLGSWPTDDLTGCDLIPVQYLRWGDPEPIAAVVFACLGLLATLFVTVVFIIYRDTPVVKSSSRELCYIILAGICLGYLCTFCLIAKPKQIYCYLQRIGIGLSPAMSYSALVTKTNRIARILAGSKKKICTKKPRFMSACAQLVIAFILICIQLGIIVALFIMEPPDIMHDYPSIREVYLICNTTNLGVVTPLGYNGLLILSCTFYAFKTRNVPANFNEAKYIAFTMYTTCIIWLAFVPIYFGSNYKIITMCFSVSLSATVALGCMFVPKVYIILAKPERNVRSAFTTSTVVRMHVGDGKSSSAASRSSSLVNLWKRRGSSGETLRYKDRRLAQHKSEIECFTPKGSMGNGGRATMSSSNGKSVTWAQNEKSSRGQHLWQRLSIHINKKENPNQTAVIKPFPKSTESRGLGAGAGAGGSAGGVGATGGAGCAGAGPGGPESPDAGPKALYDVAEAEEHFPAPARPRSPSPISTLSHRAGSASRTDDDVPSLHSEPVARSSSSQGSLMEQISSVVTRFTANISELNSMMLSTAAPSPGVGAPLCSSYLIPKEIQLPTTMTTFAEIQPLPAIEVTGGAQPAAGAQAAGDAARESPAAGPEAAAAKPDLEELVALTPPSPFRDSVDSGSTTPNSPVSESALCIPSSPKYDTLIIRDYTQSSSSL

[3] = Metabolic stability in rat hepatic microsomes assessed as parent compound remaining at 1 uM after 30 mins in presence of NADPH by LC-MS/MS analysis relative to control; type: ADME, Microsome; conditions: liver microsomes, read-out: Stability
Cytochrome P450 1A2 = molecular target: T1, Cytochrome P450 1A2 (Homo sapiens, UniProt P05177); assay: Inhibition of CYP1A2 in human liver microsomes using phenacetin as substrate after 10 mins by LC-MS/MS analysis; type: ADME
T1 sequence (P05177 whole entry): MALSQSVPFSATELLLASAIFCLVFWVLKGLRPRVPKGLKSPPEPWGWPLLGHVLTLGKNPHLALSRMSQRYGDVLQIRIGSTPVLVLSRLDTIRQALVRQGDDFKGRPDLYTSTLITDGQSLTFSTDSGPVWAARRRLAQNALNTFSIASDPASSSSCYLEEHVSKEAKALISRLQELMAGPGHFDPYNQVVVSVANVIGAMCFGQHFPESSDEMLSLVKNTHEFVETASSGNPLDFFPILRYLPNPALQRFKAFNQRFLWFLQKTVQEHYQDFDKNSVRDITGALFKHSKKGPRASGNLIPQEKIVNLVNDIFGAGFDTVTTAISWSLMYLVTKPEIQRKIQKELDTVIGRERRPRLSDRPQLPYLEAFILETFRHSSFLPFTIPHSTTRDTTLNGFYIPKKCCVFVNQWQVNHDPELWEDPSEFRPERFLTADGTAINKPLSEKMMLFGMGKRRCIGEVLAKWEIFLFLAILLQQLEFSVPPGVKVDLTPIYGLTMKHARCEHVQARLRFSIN

[4] = Half life in monkey at 0.5 mg/kg, iv; type: ADME, organism-based, Macaca mulatta; conditions: rhesus monkey, in vivo
[5] = Volume of distribution at steady state in rat at 1 mg/kg, iv after 24 hrs; type: ADME, organism-based; conditions: in vivo, read-out: Vdss
[6] = Half life in rat at 1 mg/kg, iv; type: ADME, organism-based; conditions: in vivo
[7] = Oral bioavailability in monkey at 10 mg/kg; type: ADME, organism-based, Macaca mulatta; conditions: rhesus monkey, in vivo
[8] = […] of CYP450 in human liver microsomes as substrate after 10 mins by LC-MS/MS analysis; type: ADME
Cytochrome P450 2D6 = Cytochrome P450 2D6 (Homo sapiens, UniProt P10635); assay: Inhibition of CYP2D6 in human liver microsomes using bufuralol as substrate after 10 mins by LC-MS/MS analysis; type: ADME
Sequence of Cytochrome P450 2D6 (P10635 whole entry): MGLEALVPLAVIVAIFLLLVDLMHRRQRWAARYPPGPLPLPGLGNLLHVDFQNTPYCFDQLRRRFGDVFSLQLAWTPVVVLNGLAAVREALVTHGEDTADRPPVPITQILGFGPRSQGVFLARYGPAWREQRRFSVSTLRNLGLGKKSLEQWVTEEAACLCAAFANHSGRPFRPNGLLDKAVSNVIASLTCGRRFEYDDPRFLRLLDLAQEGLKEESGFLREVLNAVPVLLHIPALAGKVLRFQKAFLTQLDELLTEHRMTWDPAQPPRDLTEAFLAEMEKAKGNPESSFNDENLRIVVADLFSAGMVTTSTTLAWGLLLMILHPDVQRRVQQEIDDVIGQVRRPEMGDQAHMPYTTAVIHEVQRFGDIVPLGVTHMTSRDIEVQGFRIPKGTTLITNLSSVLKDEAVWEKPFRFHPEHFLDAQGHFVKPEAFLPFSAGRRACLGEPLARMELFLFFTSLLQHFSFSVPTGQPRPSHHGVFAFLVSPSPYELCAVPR

[9] = AUC in rat at 10 mg/kg, po; type: ADME, organism-based; conditions: in vivo
[10] = Clearance in rat at 1 mg/kg, iv after 24 hrs; type: ADME, organism-based; conditions: in vivo
[11] = AUC in monkey at 10 mg/kg, po; type: ADME, organism-based, Macaca mulatta; conditions: rhesus monkey, in vivo
[12] = AUC in rat at 1 mg/kg, iv; type: ADME, organism-based; conditions: in vivo
[13] = Cmax in rat at 10 mg/kg, po; type: ADME, organism-based; parameters: dose 10 mg/kg, route oral; conditions: in vivo
Cytochrome P450 2C8 = molecular target: T2, Cytochrome P450 2C8 (Homo sapiens, UniProt P10632); assay: Inhibition of CYP2C8 in human liver microsomes using amodiaquine as substrate after 10 mins by LC-MS/MS analysis; type: ADME
T2 sequence (P10632 whole entry): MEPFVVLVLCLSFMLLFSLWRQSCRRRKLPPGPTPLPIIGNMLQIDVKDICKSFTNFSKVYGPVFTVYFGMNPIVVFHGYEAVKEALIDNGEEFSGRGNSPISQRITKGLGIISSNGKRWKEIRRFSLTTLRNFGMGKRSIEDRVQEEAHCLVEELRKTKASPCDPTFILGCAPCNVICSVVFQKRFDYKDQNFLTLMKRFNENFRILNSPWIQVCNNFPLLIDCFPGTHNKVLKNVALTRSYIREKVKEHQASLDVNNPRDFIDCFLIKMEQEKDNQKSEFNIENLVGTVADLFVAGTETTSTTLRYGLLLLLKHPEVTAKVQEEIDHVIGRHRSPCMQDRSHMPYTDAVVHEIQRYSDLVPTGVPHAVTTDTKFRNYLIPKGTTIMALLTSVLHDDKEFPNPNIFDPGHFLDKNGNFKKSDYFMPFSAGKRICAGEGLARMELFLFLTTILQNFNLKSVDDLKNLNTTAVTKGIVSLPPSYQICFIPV

Cytochrome P450 2A6 = molecular target: T3, Cytochrome P450 2A6 (Homo sapiens, UniProt P11509); assay: Inhibition of CYP2A6 in human liver microsomes using coumarin as substrate after 10 mins by LC-MS/MS analysis; type: ADME
T3 sequence (P11509 whole entry): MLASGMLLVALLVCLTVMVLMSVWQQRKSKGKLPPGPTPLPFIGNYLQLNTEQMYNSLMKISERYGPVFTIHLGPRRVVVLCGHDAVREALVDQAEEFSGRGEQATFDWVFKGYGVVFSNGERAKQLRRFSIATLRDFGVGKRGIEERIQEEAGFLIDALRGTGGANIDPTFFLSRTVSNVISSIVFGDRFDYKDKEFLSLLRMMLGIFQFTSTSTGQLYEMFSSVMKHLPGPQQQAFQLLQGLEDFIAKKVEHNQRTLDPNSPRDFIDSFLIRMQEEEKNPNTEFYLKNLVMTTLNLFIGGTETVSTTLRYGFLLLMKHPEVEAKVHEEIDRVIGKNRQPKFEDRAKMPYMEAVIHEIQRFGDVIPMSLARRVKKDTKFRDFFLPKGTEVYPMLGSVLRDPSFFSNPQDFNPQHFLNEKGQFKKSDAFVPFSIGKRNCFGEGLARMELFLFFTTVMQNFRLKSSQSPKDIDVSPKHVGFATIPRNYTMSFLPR

[14] = Permeability of the compound at pH 7.4 by PAMPA; type: physicochemical; conditions: read-out: permeability
Rattus norvegicus [15] = assay: Oral bioavailability in rat at 10 mg/kg; type: ADME, organism-based; conditions: in vivo
[16] = Aqueous solubility of compound at pH 7.4; type: physicochemical; conditions: aqueous medium
[17] = Volume of distribution at steady state in monkey at 0.5 mg/kg, iv after 24 hrs; type: ADME, organism-based, Macaca mulatta; conditions: rhesus monkey, in vivo, read-out: Vdss
Cytochrome P450 2C9 = Cytochrome P450 2C9 (Homo sapiens, UniProt P11712); assay: Inhibition of CYP2C9 in human liver microsomes using diclofenac as substrate after 10 mins by LC-MS/MS analysis; type: ADME
Sequence of Cytochrome P450 2C9 (P11712 whole entry): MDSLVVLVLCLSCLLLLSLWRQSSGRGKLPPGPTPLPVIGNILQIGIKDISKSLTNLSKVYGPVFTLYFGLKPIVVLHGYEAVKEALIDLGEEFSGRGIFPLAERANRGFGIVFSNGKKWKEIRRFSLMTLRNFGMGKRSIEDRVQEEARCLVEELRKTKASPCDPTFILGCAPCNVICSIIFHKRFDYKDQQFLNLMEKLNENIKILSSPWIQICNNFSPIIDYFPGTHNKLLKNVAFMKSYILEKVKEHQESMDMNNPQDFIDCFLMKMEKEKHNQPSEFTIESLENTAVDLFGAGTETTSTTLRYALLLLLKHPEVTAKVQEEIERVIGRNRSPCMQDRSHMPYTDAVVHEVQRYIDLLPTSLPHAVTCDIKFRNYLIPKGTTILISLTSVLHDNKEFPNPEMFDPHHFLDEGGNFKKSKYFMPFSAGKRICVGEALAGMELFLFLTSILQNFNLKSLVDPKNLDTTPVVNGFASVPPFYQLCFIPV

Salmonella typhimurium = assay: Genotoxicity in Salmonella typhimurium by Ames test; type: toxicity; conditions: salmonella enterica subsp. enterica serovar typhimurium
Cytochrome P450 3A4 = Cytochrome P450 3A4 (Homo sapiens, UniProt P08684); assay: Inhibition of CYP3A4 in human liver microsomes using midazolam as substrate after 10 mins by LC-MS/MS analysis; type: ADME
Sequence of Cytochrome P450 3A4 (P08684 whole entry): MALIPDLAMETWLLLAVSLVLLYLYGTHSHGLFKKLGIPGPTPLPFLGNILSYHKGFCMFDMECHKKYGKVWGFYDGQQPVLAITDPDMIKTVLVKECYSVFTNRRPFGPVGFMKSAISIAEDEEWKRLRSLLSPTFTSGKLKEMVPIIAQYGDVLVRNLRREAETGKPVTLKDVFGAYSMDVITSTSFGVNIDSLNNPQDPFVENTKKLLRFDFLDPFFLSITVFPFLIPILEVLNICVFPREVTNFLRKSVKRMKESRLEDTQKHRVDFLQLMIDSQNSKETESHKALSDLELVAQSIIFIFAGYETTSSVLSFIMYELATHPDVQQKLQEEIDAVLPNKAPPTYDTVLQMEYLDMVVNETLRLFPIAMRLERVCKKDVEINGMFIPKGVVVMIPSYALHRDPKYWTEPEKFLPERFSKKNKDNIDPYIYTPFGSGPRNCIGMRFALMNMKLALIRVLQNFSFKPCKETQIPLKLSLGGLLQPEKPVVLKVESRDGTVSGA

Rattus norvegicus [18] = assay: Toxicity in rat at 100 mg/kg, po qd administered via gavage for 14 days; type: organism-based; conditions: in vivo, 336 h
[19] = Clearance in monkey at 0.5 mg/kg, iv after 24 hrs; type: ADME, organism-based, Macaca mulatta; conditions: rhesus monkey, in vivo
Rattus norvegicus [20] = assay: Ex vivo receptor occupancy at mGluR5 in Sprague-Dawley rat brain po administered daily for 4 days in presence of [3H]-MPEPy by liquid scintillation counting method; type: functional, organism-based
[21] = Cmax in monkey at 10 mg/kg, po; type: ADME, organism-based, Macaca mulatta; parameters: dose 10 mg/kg, route oral; conditions: rhesus monkey, in vivo
Cytochrome P450 2C19 = Cytochrome P450 2C19 (Homo sapiens, UniProt P33261); assay: Inhibition of CYP2C19 in human liver microsomes using (S)-mephenytoin as substrate after 10 mins by LC-MS/MS analysis; type: ADME
Sequence of Cytochrome P450 2C19 (P33261 whole entry): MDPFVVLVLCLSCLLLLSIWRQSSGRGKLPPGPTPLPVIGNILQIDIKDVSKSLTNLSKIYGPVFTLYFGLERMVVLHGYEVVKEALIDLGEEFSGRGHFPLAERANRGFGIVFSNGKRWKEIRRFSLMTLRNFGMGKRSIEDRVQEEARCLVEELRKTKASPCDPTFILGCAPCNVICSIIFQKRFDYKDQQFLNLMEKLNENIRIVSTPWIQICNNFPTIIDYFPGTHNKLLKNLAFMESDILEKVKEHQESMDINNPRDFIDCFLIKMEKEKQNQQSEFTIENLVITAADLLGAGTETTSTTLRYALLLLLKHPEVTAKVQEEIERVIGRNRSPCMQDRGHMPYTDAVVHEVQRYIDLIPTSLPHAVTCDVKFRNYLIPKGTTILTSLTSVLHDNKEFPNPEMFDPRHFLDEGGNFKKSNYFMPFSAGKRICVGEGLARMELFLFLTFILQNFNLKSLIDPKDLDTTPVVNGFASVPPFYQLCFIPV

[22] = AUC in monkey at 0.5 mg/kg, iv; type: ADME, organism-based, Macaca mulatta; conditions: rhesus monkey, in vivo

remaining at 0.5 h, 1 µM [1]: > 91%
IC50 [2]: 0.046 µM
remaining at 0.5 h, 1 µM [3]: > 91%
Compound: Cc1cc(Cl)cc(C(=O)N2CCc3oc(-c4ccc(F)cn4)nc3C2)c1

IC50 [2]: 0.237 µM
Compound: N#Cc1ccc(-c2nc3c(o2)CCN(C(=O)c2ccccc2)C3)nc1

IC50 [2]: 0.174 µM
Compound: O=C(c1ccccc1)N1CCc2oc(-c3ccc(Br)cn3)nc2C1

IC50 (Cytochrome P450 1A2): > 50 µM
half-life [4]: 9.5 h
Vd [5]: 1.6 L/kg
half-life [6]: 2 h
bioavailability [7]: 114%
Activity [8]: Not Active
IC50 (Cytochrome P450 2D6): > 50 µM
AUC [9]: 26100 ng·h/mL
clearance [10]: 10.8 mL/min/kg
remaining at 0.5 h, 1 µM [1]: 91 to 97%
AUC [11]: 69200 ng·h/mL
AUC [12]: 1550 ng·h/mL
IC50 [2]: 0.063 µM
Cmax [13]: 2070 ng/mL
IC50 (Cytochrome P450 2C8): > 50 µM
IC50 (Cytochrome P450 2A6): > 50 µM
Papp [14]: 31.7 ×10⁻⁶ cm/s
F (Rattus norvegicus [15]): 168%
solubility [16]: 23 µg/mL (≈ 67.4 µM)
Vd [17]: 2.2 L/kg
IC50 (Cytochrome P450 2C9): > 50 µM
IC50 (Cytochrome P450 3A4): > 50 µM
clearance [19]: 2.8 mL/min/kg
Activity (Rattus norvegicus [20]): Dose-dependent effect
Cmax [21]: 4060 ng/mL
IC50 (Cytochrome P450 2C19): > 50 µM
remaining at 0.5 h, 1 µM [3]: 91 to 97%
AUC [22]: 3050 ng·h/mL
Compound: O=C(c1cccc(F)c1)N1CCc2oc(-c3ccc(F)cn3)nc2C1
Activity (Salmonella typhimurium): Non-Toxic
Activity (Rattus norvegicus [18]): Non-Toxic
